Data as given in US20150246087A1, “EXTRACTS AND THERAPEUTIC USES THEREOF” (REGENERA PHARMA LTD., priority 2012, published 2015).
“And” between values parts separate entries of the source, which are not always exact repeats. Equal entries are not always repeated.

Columns and labels:
[1] = system: ARPE-19 cells; assay: Neuronal-like differentiation of ARPE-19 retinal pigment epithelial cell cultures; assay type: cell-based, human; conditions: 2-10% w/w in cottonseed oil, compared to vehicle control
Description: ARPE-19 cells (obtained from the American Type Culture Collection, ATCC) were plated in flat bottom 96 well tissue culture microplates (Costar) at a concentration of 2-5×10^3 cells per well (1-2.5×10^4 cells/mL) in a growth medium consisting of DMEM:Ham F-12, 1:1, supplemented with 10% Fetal Bovine Serum, […] glutamine, 100 units/mL penicillin and 100 μg/mL streptomycin. The cells were allowed to adhere to the plate surfaces overnight prior to treatment with either RPh-CY or RPh-SA.
RPh-CY and RPh-SA were prepared essentially as described in Examples 2 and 4 respectively, to provide 10% solutions in a carrier composed of grape seed oil, olive oil, cottonseed oil, and Mygliol® (Mygliol® 810 or Mygliol® 812). […]
The cultures were incubated in a 37° C., 5% CO2 incubator for 48 hr. The medium was then removed, the cultures washed twice with phosphate buffered saline (PBS), fixed with absolute methanol for 10 min and stained with Hemacolor® reagents (Boehringer Mannheim), which stain cells in a manner similar to Giemsa, and may be used in a quantitative cell viability assay (see Keisari, Y. A colorimetric microtiter assay for the quantitation of cytokine activity on adherent cells in tissue culture. J. Immunol. Methods 146, 155-161, 1992). […]

[2] = system: 3T3 cells; assay: Cytotoxicity in 3T3 cells (XTT kit); assay type: cell-based; conditions: DMSO 10% control; 48 hr; single well of triplicate
Description: 3T3 cells (ATCC; CRL-1658) were seeded in a 96 well plate (4×10^3 cells per well), and 24 hr following cell adherence, cells were treated (in triplicate) with different concentrations (1-50 mg/ml) of the test items, or with the control items cottonseed oil alone, or 10% DMSO, or were left untreated. All treatments were introduced in a final volume of […] within a total volume of 100 μl/well. Cytotoxicity was determined 48 hr after additional of test items, using the XTT kit (Biological industries, Israel). Raw data was analyzed using Prism4 statistical software following blank reduction. The cottonseed oil vehicle treated control was used to calculate 100% viability and OD % was calculated.

SMILES | change in ARPE-19 RPE cells (neurodifferentiation assay) [1] | OD at 450 (XTT) [2]
CC(C)c1c(O)ccc2c1CC[C@H]1C(C)(C)CCC[C@]21C [totarol] | induced no change | –
C[S+](C)[O-] [DMSO] | – | 0.238 and 0.233 and 0.234
